From the OPERA property sets (Mansouri et al. 2018)
Peptide text beside a SMILES is read from it.

Compound	logP
CCCCCCCCn1cc(C)c(=O)[nH]c1=O	3.08
NC(=O)c1ccc(C(O)C(CO)NC(=O)C(Cl)Cl)cc1 (stereo not given)	-0.48
O=C1C=C(N2CC=CC2)C(=O)c2ccccc21	2.85
CNC(=O)ON=Cc1ccccc1	1.49
Nc1nc(N)nc(-c2ccccc2[N+](=O)[O-])n1	0.49
O=Cc1ccc2cccccc1-2	2.64
COc1ccccc1	2.11
CC(C)(C)OC(N)=O	0.48
O=C1CCC(=O)N1c1ccccc1[N+](=O)[O-]	0.36
O=c1cccc[nH]1	-0.58
COc1ccc(NS(=O)(=O)c2ccc(N)cc2)cc1	1.51
NC(=O)Nc1ccc(C(O)C(CO)NC(=O)C(Cl)Cl)cc1 (stereo not given)	-0.6
Cc1[nH]cnc1CSCCNc1nc(=O)cc[nH]1	0.02
CCOc1cccc(OC(=O)NC)c1	1.75
O=S(=O)(c1ccccc1)c1ccc2ncccc2c1	2.57
NS(=O)(=O)c1ccc(SCCO)s1	0.38
N#Cc1c[nH]c2ccccc12	2.32
CC(C)=C1C(=O)OC2CC(C)C3C=CC(=O)C3(C)C(O)C12 (stereo not given)	1.47
CCCCCCCOc1ccccc1NC(=O)OCCN1CCCCC1	5.62
Cc1cc(C)c2c(c1)C(c1ccccc1)=NCC(=O)N2	2.94
Brc1c(Br)c(Br)c(Br)c(Br)c1Br	6.07
C1=Cc2ccc3c4c(ccc(c24)C1)-c1ccccc1-3	5.78
CCC(C)OC(C)=O (stereo not given)	1.72
CCC(C)c1cc([N+](=O)[O-])cc(C(C)C)c1O (stereo not given)	4.19

Compound	logP
CC(=O)[C@H]1CC[C@H]2[C@@H]3CC=C4C[C@@H](O)CC[C@]4(C)[C@H]3CC[C@]12C	4.22
Nc1cccc2nc3ccccc3cc12	2.47
Nc1ccc(S(=O)(=O)Nc2cnc3ccccc3n2)cc1	1.68
Nc1nc2[nH]cnc2c(=O)[nH]1	-0.91
COc1ccc2ncccc2c1	2.2
CCCCNc1ccc(C(=O)OCCOCCOCCOCCOCCOCCOCCOCCOCCOC)cc1	2.45
COc1ccc(C=CC(=O)O)cc1OC	2.34
O=C(O)[C@@H]1CCCN1	-2.54
NC(=O)c1cccc(N)c1	-0.33
Cn1c(C=[N+](C)[O-])cnc1[N+](=O)[O-]	0.04
CCOC(=O)C(=Cc1ccccc1OC)C(C)=O	2.39
C=CC=CCC	3.16
O=C(CN1CCCCC1)Nc1ccccc1	2.71
NC(=O)NNC(=O)c1ccccc1	-0.5
CON(C)C(=O)Nc1ccc(Cl)cc1	2.3
NC(=O)c1ccc([N+](=O)[O-])cc1	0.82
O=C(NN1CCCCCC1)NS(=O)(=O)c1ccc(Cl)cc1	1.64
Cc1ccc(CC(=O)O)cc1	1.86
Brc1ccncc1	1.54
CN(C)C(N(C)C)=S(I)c1ccccc1 (stereo not given)	-0.68
C1=Cc2ccccc2C1	2.92
CCCCCCCCC1(c2ccncc2)CCC(=O)NC1=O (stereo not given)	4.04
CCCC[SiH](C)C	3.57
COCCO	-0.77

Compound	logP
O=C(O)c1c[nH]c2ccccc12	1.99
CC1=C(N2CC2)C(=O)C(Cl)=C(N2CC2)C1=O	1.2
CCCCCCn1nnc2ccccc21	3.7
COc1ccc(C(c2ccc(OC)cc2)C(F)(F)F)cc1	4.76
CCOP(=O)(OCC)SCn1nnc2ccccc2c1=O	1.63
Cc1ccc([N+](=O)[O-])cc1	2.37
COc1c(O)cc(Cl)c(Cl)c1Cl	3.77
COc1ccccc1NC(=O)Nc1ccccc1OC	2.98
O=S(=O)(Cc1ccccc1)c1ccccc1	2.05
CCNC(=O)c1[nH]nc(C)c1[N+](=O)[O-]	0.13
O=[N+]([O-])c1ccc(F)cc1	1.8
CCCNC	0.84
Cc1cccc(O)c1	1.96
O=C(CN1CCCCC1)Nc1cccc(I)c1	3.92
CCCCC1OC(=O)c2ccccc21 (stereo not given)	2.8
COc1ccccc1Oc1ccccc1	2.92
O=C(Nc1ccc(Cl)cc1)c1cccnc1	2.52
C=C[C@@]12COC(=O)C(=C)[C@@H]1[C@H]1OC(=O)C(=C)[C@@H]1[C@@H](O)C2	0.31
O=[N+]([O-])c1nccn1C1OC(CI)C(O)C1O (stereo not given)	0.32
CCN(CC)CCNC(=O)c1ccccc1OC	1.98
[O-][n+]1ccccc1	-1.2
CC(=O)Nc1cccc(C)c1	1.68
OCCN1CCN(CCCN2c3ccccc3Sc3ccc(C(F)(F)F)cc32)CC1	4.36
OB(O)c1ccccc1	1.58

Compound	logP
CCOc1ccc(OC(=O)NC)cc1	1.63
O=C(O)C(c1ccc(-c2ccccc2)cc1)C(O)c1cccc(F)c1 (stereo not given)	3.31
O=C(O)COc1ccccc1Cl	1.86
O=[N+]([O-])c1ccc(O)c(O)c1	1.66
CC(=O)NC(CO)C(O)c1ccc([N+](=O)[O-])cc1 (stereo not given)	-0.03
O=S(=O)(O)c1ccc(O)c2ccccc12	-0.44
CC(=O)CF	-0.39
NS(=O)(=O)c1cccc(Cl)c1	1.29
CNC(=O)c1[nH]nc(C)c1[N+](=O)[O-]	-0.23
NC(Cc1c[nH]c2ccc(F)cc12)C(=O)O (stereo not given)	-0.71
NCCCCc1ccccc1	2.4
CC[C@H](C)[C@H](N)C(=O)O	-1.72
CN1CCC(CN2c3ccccc3Sc3ccccc32)C1 (stereo not given)	5.23
O=C(Nc1ccccc1)C1CNCCN1 (stereo not given)	0.48
Nc1ccccc1Cl	1.9
CCOc1cccc(O)c1	1.98
c1ccc(N(c2ccccc2)c2ccccc2)cc1	5.74
Clc1cc(Cl)c(-c2cccc(Cl)c2Cl)cc1Cl	6.67
CC(=O)c1ccc(C(C)=O)cc1	1.34
CC(=O)N(C)c1ccc(O)cc1	0.61
CCN(CC)N=Nc1ccc([N+](=O)[O-])cc1	4.17
Cc1ccccn1	1.11
O=S(=O)(Oc1ccccc1)c1ccccc1	3.06
CCNC	0.15

Compound	logP
CCc1ccc([N+](=O)[O-])cc1	3.03
CCC(C)Cl (stereo not given)	2.33
O=C(O)CCCc1c[nH]c2ccccc12	2.3
c1cncc(CN2CCOCC2)c1	0.04
CCOC(=O)c1ccc([N+](=O)[O-])cc1	2.33
CON(C)C(=O)Nc1ccccc1	1.29
Cn1ccccc1=O	-0.23
CCCN1CCCN(CCC)C1=S	2.83
O=C1CN(N=Cc2ccc([N+](=O)[O-])o2)C(=O)N1	-0.47
CCn1nnc(Oc2ccc(NC(=O)N(C)C)cc2Cl)n1	1.7
CC(C)(C)C1(O)CCN2CC3c4ccccc4CCc4cccc(c43)C2C1 (stereo not given)	5.2
NS(=O)(=O)c1ccccc1[N+](=O)[O-]	0.34
CC(C)c1cnc([N+](=O)[O-])n1C	1.09
CCO[Si](C)(C)OCC	0.61
CC(=O)OC1CCCCC1NC(=O)N(CCCl)N=O (stereo not given)	1.98
CN1C(=O)CN=C(c2ccc(Cl)cc2)c2cc(F)ccc21	3.1
COc1ccc(N=NN(C)C)cc1	2.99
O=P(O)(O)c1ccccc1	0.54
Oc1cnc2ccccc2c1	2.08
O=C1CC(=O)c2ccccc21	0.61
Brc1cc(Br)cc(Br)c1	4.51
Oc1ccc(Nc2ccccc2)cc1	2.82
CCCCNC(=O)NO	0.32
N#CCc1ccsc1	1.26

Compound	logP
CCCCCC=O	1.78
CCOC(=O)C(=Cc1ccc([N+](=O)[O-])cc1)C(=O)OCC	3.03
CC[N+](=O)[O-]	0.18
CC12CCC3C(CCC4CC(=O)CCC43C)C1CCC2=O (stereo not given)	3.6
O=C(O)COc1ccc(O)cc1	0.65
O=[N+]([O-])c1nccn1CC(F)CO (stereo not given)	-0.38
COc1cccc(N(C)C(=S)Oc2cccc(C(C)(C)C)c2)n1	5.18
COC(=O)Cn1ccnc1[N+](=O)[O-]	-0.09
NCCCc1ccccn1	0.49
COc1cccc(OC)c1C(=O)N[C@@H]1C(=O)N2[C@@H]1SC(C)(C)[C@@H]2C(=O)O	1.22
COc1cc2c(c(OC)c1O)-c1ccc(OC)c(=O)cc1[C@@H](NC(C)=O)CC2	0.48
CCCCCCCOC(=O)c1ccc(O)cc1	4.83
Brc1cnc2ccccc2c1	3.03
Clc1cccc2cccnc12	2.44
CN(C)CC/C=C1\c2ccccc2Sc2ccc(Cl)cc21	5.18
c1ccoc1	1.34
CCOC(=O)CCl	0.94
Cc1ccc(N=C=S)cc1	3.92
Nc1nc(N)nc(N)n1	-1.37
O=P(Oc1ccccc1)(Oc1ccccc1)Oc1ccccc1	4.59
O=C1CN=C(c2ccccc2Cl)c2cc([N+](=O)[O-])ccc2N1	2.41
COc1ccc(C(O)C(C(=O)O)c2ccc(-c3ccccc3)cc2)cc1 (stereo not given)	3.59
CC(C)(C)c1ccc([N+](=O)[O-])cc1	3.89
C=C(C)C(=O)OC	1.38

Compound	logP
OCCCCc1ccccn1	0.86
CNC(=O)Oc1ccc2ccccc2c1	2.56
Oc1ccc(Br)cc1Br	3.22
OCCN1CCN(CCCN2c3ccccc3Sc3ccc(Cl)cc32)CC1	4.2
CC1CCCC1	3.37
CCOC(=O)CCc1ccccc1	2.73
COCCNC(=S)C(F)(F)Cn1cnc([N+](=O)[O-])n1	0.66
Cc1ccc(NC(=O)c2cccnc2)cc1	2.08
CCOc1ccccc1-c1nc(N)nc(N)n1	1.03
CCCCOc1ccc(C(=O)OCCN(C)C)cc1	3.91
CCOC(=O)c1ccncc1	1.43
CN1CCN(CC(=O)N/N=C/c2ccc([N+](=O)[O-])o2)CC1	-0.1
CCC(C)C(NC(=O)C(CC(N)=O)NC(C)=O)C(N)=O (stereo not drawn) (Ac-Asn-Ile-NH2; configuration not given here)	-1.43
O=C(CCNNC(=O)c1ccncc1)NCc1ccccc1	0.87
CCc1ccccn1	1.69
O=[N+]([O-])c1cc(Cl)c(Cl)cc1Cl	3.48
Fc1cccc(C2CNCCO2)c1 (stereo not given)	1.42
CNC(=O)Oc1ccc(C#N)cc1	0.95
CCCC(=O)OCn1cnc(CSCCNC(=NC#N)NC)c1C	1.6
COCCN(CCOC)N=O	-0.38
O=C(O)c1ccc(I)cc1	3.02
